Data reported in PMC5522084, “Eg5 inhibitor YL001 induces mitotic arrest and inhibits tumor proliferation” (Oncotarget, 2017).

Key:
HeLa = assay: Antiproliferation assay (Alamar Blue), HeLa; format: cell-based; details: Homo sapiens, 48 h, HeLa cell line, two days
Method: (§1) Cytotoxic activities of the compounds of interest were investigated with human cancer cell lines using the Alamar Blue assay. Cells (5 × 10^3 cells/well) were seeded into 96-well plates (Corning, 3603). Various sample concentrations (compounds of interest) were added to each well in duplicate, and incubated at 37°C with 5% CO2 for two days such that cells were in the exponential growth phase at the time of drug addition. Ten microliters of the Alamar Blue Solution (Invitrogen, Alamar Blue) were added to each well and incubated at 37°C for up to 2 hours in a humidified, 5% CO2 atmosphere. After incubation, florescence was measured using a microplate reader (Tecan) at an excitation wavelength of 540 nm and emission of 590 nm. Each inhibitory concentration was measured in triplicate, and averaged data points ± SD are shown. Statistical analysis was carried out with GraphPad Prism 5 and the fifty-percent effective concentration is expressed as EC50.

A549 = assay: Antiproliferation assay (Alamar Blue), A549; format: cell-based; details: Homo sapiens; A549, lung cancer; read-out: EC50 of YL001
Method: as §1

Huh7 = assay: Antiproliferation assay (Alamar Blue), Huh7; format: cell-based; details: Homo sapiens, Huh-7; Huh7, liver cancer; read-out: EC50 of YL001
Method: as §1

B16 = assay: Antiproliferation assay (Alamar Blue), B16; format: cell-based; details: B16, mouse melanoma; read-out: EC50 of YL001
U87 = assay: Antiproliferation assay (Alamar Blue), U87; format: cell-based; details: Homo sapiens, U-87 MG; U87, brain cancer; read-out: EC50 of YL001
Method: as §1

MCF-7 = assay: Antiproliferation assay (Alamar Blue), MCF-7; format: cell-based; details: Homo sapiens, MCF7; MCF-7, breast cancer; read-out: EC50 of YL001
Method: as §1

MCF10A = assay: Antiproliferation assay, normal breast cell line MCF10A; format: cell-based
Method: as §1

HeLa cells [1] = assay: Monopolar spindle phenotype, high content imaging; format: cell-based; details: Homo sapiens, 8 hours, analyzed with Columbus, read-out: EC50 for monopolar spindles
Method: HeLa cells (5 × 10^3 cells/well) were seeded in 96-well plates (Corning, 3603). Drugs were diluted appropriately in medium from 10 mM stocks in 100% DMSO and added to the cells. Following 8 hours incubation with drugs, cells were fixed with 4% paraformaldehyde (20 minutes at room temperature), permeabilized with PBST (0.5% Triton X-100 in PBS) for 15 minutes, and washed before blocking. Cells were blocked with 4% BSA for at least 30 minutes at room temperature and stained with anti-β-tubulin monoclonal antibodies (Sigma) at 400-fold dilution for 1 hour with Alexafluor 488-conjugated goat anti-mouse secondary antibodies (Invitrogen) at 300-fold dilution for 1 hour. DNA was detected with 4′,6-diamidino-2-phenylindole dihydrochloride (DAPI). Actin was detected with Phalloidin. High content screening (Perkin Elmer Operetta) was used to photograph stained cells at 40× magnification, and Columbus software was used for statistical analysis of the percentage of mitotic cells with monopolar spindles present in treated cells over the total number of cells in mitosis counted after 8 hours incubation with drugs.

HCT 116 = assay: Cell cycle analysis by flow cytometry; format: cell-based, Human; details: HCT 116, 8 hours treatment with 50 μM
HeLa cells [2] = assay: Colony formation; format: cell-based; details: Homo sapiens, exposed 24 hours, cultured 10 days
Method: HeLa cells (5 × 10^2 cells/well) were seeded into 6-well plates and were treated with a series of gradient concentrations of YL001 for 24 hours, followed by washing and continual culture for 10 days. DMSO was used as a negative control, and STLC was used as a positive control. Cells were fixed with ethanol for more than 30 minutes and dyed with crystal violet for more than 30 minutes. Clones were counted with OpenCFU [54].

[3] = system: panel of 468 typical, atypical and mutant human kinases; assay: Kinase profiling (KINOMEscan, DiscoverX); format: binding; details: 468 kinases, 1 μM
Method: Kinase profiling was conducted by the DiscoverX as KINOMEscan profiling service for testing the inhibition of YL001 of interest against 468 kinases. Selectivity score S(35) was defined as follows:
S(35) = (number of non-mutant kinases with% Control < 35)/(number of non-mutant kinases tested).

B16 melanoma xenograft = B16 melanoma xenograft model; format: in vivo
Method: B16 cells (1 × 10^6 cells) were inoculated s.c. into 6-week old C57BL/6 mice. Tumor volume was calculated as: V = 1/2× L (long axis)×W^2 (short axis). When the volume of tumor was between 50 to 100 mm^3, YL001 was administered i.p. daily on days 1 to 10 at 200 mg/kg. Doses and schedules were determined by tolerance studies. Mice were kept under specific pathogen-free conditions, and all animal experiments were approved by the Committee on Animal Research at our institute.
Vehicle (10% (v%) N,N-Dimethylacetamide (DMAC) in 200 μL olive oil per 20 g mouse) was administered daily i.p. as a control on days 1 to 10. Drug efficiency was expressed as the ratio of the mean experimental V/V0 value to that of the control group [treated versus control (T/C) ratio], where V is the tumor volume on the day of evaluation and V0 is the tumor volume on the day of initial treatment with the drug. Drug efficiency was also evaluated by median survival. All statistical analysis was performed using Graphpad Prism 5.

[4] = Dose range testing in healthy mice without tumor; format: in vivo; details: healthy B6 mice without tumor; taking into consideration the solubility
Pharmacokinetic study = format: in vivo; details: BALB/c nude, mouse, plasma, ip; 200 mg/kg intraperitoneally, single dose, HeLa xenograft nude mice
Method: A HPLC-MS/MS method was developed for single-dose pharmacokinetic (PK) study of YL001 in HeLa xenograft BALB/c nude mice. YL001 was administered intraperitoneally at a dose of 200 mg/kg. Blood samples were then collected by enucleating eyeballs at 0.083, 0.167, 0.333, 0.5, 1, 2, 6, 12, 24 hours in heparinized polypropylene tubes. Three mice were sacrificed at each time point. Samples were centrifuged immediately at 4000 r/min for 20 min to separate plasma. The final sample for HPLC-MS/MS detection by QTRAP 6500 (AB Sciex, USA) was a mixture (plasma: H2O: methanol = 1:1:8). All individual data were pooled together to further perform PK analysis. DAS 2.1.2 were used to estimate PK parameters by non-compartmental analysis.

[5] = system: human and rodent cancer cell lines; assay: Antiproliferative activity over the panel of 15 cancer cell lines; format: cell-based; details: 15 cell lines tested, read-out: EC50 values predominantly in the range
Method: as §1

Which results are given for `Cc1ccc(-n2nnnc2/C(=C/N(C)C)C(=O)c2cccc(C(F)(F)F)c2)cc1` [YL001, (Z)-3-(dimethylamino)-2-(1-(p-tolyl)-1H-tetrazol-5-yl)-1-(3-(trifluoromethyl)phenyl)prop-2-en-1-one]?
EC50 (HeLa): 14.3 ± 0.78 µM; EC50 (A549): 22.8 ± 0.72 µM; EC50 (Huh7): 14.6 ± 0.82 µM; EC50 (B16): 13.9 ± 5.03 µM; EC50 (U87): 26.2 ± 0.12 µM; EC50 (MCF-7): 14.9 ± 2.57 µM; Therapeutic window (MCF10A): > 6.7; EC50 (MCF10A; Homo sapiens, MCF-10A, MCF10A, breast normal cell, read-out: EC50 of YL001): > 100 µM; EC50 (HeLa cells [1]): 15.3 µM; percentage of cells with 4N DNA content (HCT 116): over 80%; IC50 (HeLa cells [2]): 0.124 µM; activity against kinase panel [3]: no activity; adverse effects / toxicity (B16 melanoma xenograft; 200 mg/kg i.p. daily for 10 days, body weight): no adverse effects were observed; minimum T/C ratio (B16 melanoma xenograft; 200 mg/kg i.p. daily for 10 days, tumor volume): 0.40; Medium survival time (B16 melanoma xenograft; 200 mg/kg, B16 tumor-bearing mice): > 33 days; tumor growth inhibition (B16 melanoma xenograft; xenograft mouse model, 200 mg/kg i.p. daily): 60%; maximal therapeutic dose [4]: 200 mg/kg; half-life (Pharmacokinetic study): 5.3 h; EC50 [5]: 5 to 20 µM
